# In article PMC5522084, “Eg5 inhibitor YL001 induces mitotic arrest and inhibits tumor proliferation” (Oncotarget, 2017):
# How the values were obtained:
# [1] = system: human cancer cell lines; experiment: Antiproliferation screening of 23 selected compounds (Alamar Blue); assay type: cell-based; conditions: proliferation inhibition
# Procedure: (§1) Cytotoxic activities of the compounds of interest were investigated with human cancer cell lines using the Alamar Blue assay. Cells (5 × 10^3 cells/well) were seeded into 96-well plates (Corning, 3603). Various sample concentrations (compounds of interest) were added to each well in duplicate, and incubated at 37°C with 5% CO2 for two days such that cells were in the exponential growth phase at the time of drug addition. Ten microliters of the Alamar Blue Solution (Invitrogen, Alamar Blue) were added to each well and incubated at 37°C for up to 2 hours in a humidified, 5% CO2 atmosphere. After incubation, florescence was measured using a microplate reader (Tecan) at an excitation wavelength of 540 nm and emission of 590 nm. Each inhibitory concentration was measured in triplicate, and averaged data points ± SD are shown. Statistical analysis was carried out with GraphPad Prism 5 and the fifty-percent effective concentration is expressed as EC50.
# [2] = target: T1, Eg5 motor domain (Homo sapiens, UniProt P52732); experiment: SPR assay (Biacore T200); assay type: binding; conditions: for Binding Level (RU): SPR screening
# T1 sequence (P52732 18-359 limits assumed): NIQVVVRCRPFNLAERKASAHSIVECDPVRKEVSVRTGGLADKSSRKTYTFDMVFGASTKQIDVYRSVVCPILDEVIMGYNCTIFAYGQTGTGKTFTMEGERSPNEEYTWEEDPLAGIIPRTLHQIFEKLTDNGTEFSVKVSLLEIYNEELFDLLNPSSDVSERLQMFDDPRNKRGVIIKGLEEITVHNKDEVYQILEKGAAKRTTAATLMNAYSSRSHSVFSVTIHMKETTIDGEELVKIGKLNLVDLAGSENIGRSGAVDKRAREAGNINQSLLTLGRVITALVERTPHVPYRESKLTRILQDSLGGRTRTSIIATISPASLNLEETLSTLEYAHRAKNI
# Procedure: Interactions of the Eg5 motor domain and compounds of interest were analyzed using the Biacore T200 system (GE Healthcare, Uppsala, Sweden) at 25°C. Eg5 motor protein obtained as previously described (51) was immobilized on a sensor chip (CM5) using an amine coupling kit (GE Healthcare, Buckinghamshire, UK). […] For binding studies, analytes were applied at corresponding concentrations in running buffer at a flow rate of 30 μL/minute with a contact time of 60 seconds and a dissociation time of 60 seconds. Chip platforms were washed with running buffer and 50% DMSO. Data were analyzed with Biacore evaluation software (T200 Version 1.0) by curve fitting using a steady state 1:1 binding model and a kinetic model.
# [3] = target: Eg5 (Homo sapiens, UniProt P52732); experiment: Inhibition of Eg5 ATPase activity; assay type: biochemical; conditions: read-out: Enzyme EC50
# Procedure: All experiments were performed as previously described. Data were analyzed using GraphPad Prism 5 and Microsoft Excel to obtain EC50 values. […] Each inhibitory concentration was measured in triplicate, and averaged data points ± SD are shown.
# [4] = system: HeLa; experiment: Antiproliferation assay (Alamar Blue), HeLa; assay type: cell-based; conditions: Homo sapiens, 48 h, HeLa cell line, two days
# Procedure: as §1
# [5] = system: HeLa cells; experiment: Colony formation; assay type: cell-based; conditions: Homo sapiens, exposed 24 hours, cultured 10 days
# Procedure: HeLa cells (5 × 10^2 cells/well) were seeded into 6-well plates and were treated with a series of gradient concentrations of YL001 for 24 hours, followed by washing and continual culture for 10 days. DMSO was used as a negative control, and STLC was used as a positive control. Cells were fixed with ethanol for more than 30 minutes and dyed with crystal violet for more than 30 minutes. Clones were counted with OpenCFU [54].
# Chain of Eg5 (P52732 whole entry): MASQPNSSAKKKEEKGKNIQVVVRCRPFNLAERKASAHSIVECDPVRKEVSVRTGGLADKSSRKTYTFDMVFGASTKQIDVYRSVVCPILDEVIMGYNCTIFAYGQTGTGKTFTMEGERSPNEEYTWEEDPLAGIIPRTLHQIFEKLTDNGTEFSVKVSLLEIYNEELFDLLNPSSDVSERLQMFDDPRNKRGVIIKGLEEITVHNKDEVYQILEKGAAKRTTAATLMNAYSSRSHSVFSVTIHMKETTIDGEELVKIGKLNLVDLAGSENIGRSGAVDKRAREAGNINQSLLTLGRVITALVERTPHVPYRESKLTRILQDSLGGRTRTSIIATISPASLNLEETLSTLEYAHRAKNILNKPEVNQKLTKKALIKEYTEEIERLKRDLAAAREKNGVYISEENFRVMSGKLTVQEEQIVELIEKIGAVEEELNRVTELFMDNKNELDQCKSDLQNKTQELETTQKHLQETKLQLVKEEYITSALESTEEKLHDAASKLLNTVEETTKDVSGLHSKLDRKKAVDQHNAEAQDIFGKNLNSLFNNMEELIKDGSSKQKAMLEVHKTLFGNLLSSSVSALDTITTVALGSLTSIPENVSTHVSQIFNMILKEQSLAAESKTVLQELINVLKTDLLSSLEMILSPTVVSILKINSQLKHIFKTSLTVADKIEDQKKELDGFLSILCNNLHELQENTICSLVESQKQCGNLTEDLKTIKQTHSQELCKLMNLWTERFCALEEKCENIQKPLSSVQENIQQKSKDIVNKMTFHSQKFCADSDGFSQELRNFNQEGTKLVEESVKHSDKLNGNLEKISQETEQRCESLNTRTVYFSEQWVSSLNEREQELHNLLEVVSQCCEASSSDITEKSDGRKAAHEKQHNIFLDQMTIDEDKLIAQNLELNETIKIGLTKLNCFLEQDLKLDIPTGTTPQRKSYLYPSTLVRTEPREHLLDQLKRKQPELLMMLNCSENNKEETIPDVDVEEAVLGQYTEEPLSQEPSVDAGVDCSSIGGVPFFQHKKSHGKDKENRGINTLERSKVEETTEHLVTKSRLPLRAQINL
Binding Level (RU) [2],SMILES,Inhibition (50 μM) [1],other results
3.8 RU,CC(=O)Nc1sc2c(c1C(c1ccc(OC(F)F)cc1)N1CCOCC1)CCCC2 (stereo not drawn) [AF-399/41981012],14.85%,
44.5 RU,Cc1ccc(N2C(=O)CSC23C(=O)N(CN2CCN(c4ccccc4)CC2)c2ccccc23)cc1C (stereo not drawn) [AG-205/13460017],30.78%,
3.4 RU,CN(C)CCN1C(=O)C(=O)/C(=C(/O)c2ccccc2)C1c1ccc2c(c1)OCO2 (stereo not drawn) [AG-205/13765047],–18.48%,
27.7 RU,O=[N+]([O-])c1ccc(COc2ccccc2C2N(Cc3ccccc3)CCN2Cc2ccccc2)cc1 [AG-205/14740101],0.87%,
32.8 RU,CCOC(=O)C1=CN2C(C=C1)C(C(=C(C#N)C#N)C1CC1)C(c1ccccc1)C2C(=O)c1ccccc1 (stereo not drawn) [AG-205/33162003],60.89%,
8.7 RU,Cn1cc(C2C(=O)NC(c3ccccc3)=NN2C(=O)c2ccccc2)c2ccccc21 (stereo not drawn) [AG-227/37394007],97.78%,
100.1 RU,N#CC1=C(N)Oc2n[nH]c(-c3cccc4ccccc34)c2C1c1cccc(O)c1 (stereo not drawn) [AJ-292/15089069],58.97%,
59.8 RU,CC(=O)C1=NN(c2ccc(Cl)cc2)C(c2ccc3c(c2)OCO3)N1c1ccccc1 (stereo not drawn) [AK-778/11811129],9.38%,
57.7 RU,Cc1ccc(N2C(=N)/C(=C(/O)c3ccccc3)C(c3ccc([N+](=O)[O-])cc3)C3=C2CCCC3=O)cc1Cl (stereo not drawn) [AN-919/14545008],26.79%,
1.9 RU,Cc1ccc(C2C3=C(CCCC3=O)N(c3ccc(Br)cc3)C(=N)/C2=C(/O)c2ccccc2)cc1 (stereo not drawn) [AN-919/14547113],21.56%,
56.4 RU,Cc1ccc(N=C2S/C(=C/c3ccccc3OCC(=O)N3CCOCC3)C(=O)N2Cc2ccccc2)cc1 [AO-081/41364431],29.79%,

# More lines, now with the values behind:
SMILES,Binding Level (RU) [2],Inhibition (50 μM) [1],other results
CCOC(=O)C1C2c3ccccc3C(c3ccccc32)C1C(=O)OCC (stereo not drawn) [AE-842/33003047],14.6 RU,–30.66%,
OC(COCc1ccc2c(c1)OCO2)CN1CCN(C(c2ccccc2)c2ccccc2)CC1 (stereo not drawn) [AF-399/14739190],36.9 RU,22.02%,
Cc1ccc(-n2nnnc2/C(=C/N(C)C)C(=O)c2cccc(C(F)(F)F)c2)cc1 [AG-401/37257005],18.8 RU,95.06%,
COC(=O)CN1C(c2ccccc2)=Nc2ccc(Br)cc2C1c1ccccc1 (stereo not drawn) [AG-690/36921098],61.1 RU,21.81%,
COC(=O)C1NC(c2ccc(F)cc2)(c2ccc(F)cc2)C2C(=O)N(c3ccc(Cl)cc3)C(=O)C12 (stereo not drawn) [AH-487/42271989],31.9 RU,41.63%,
NC1=C(C(=O)OCc2ccccc2)C2(C(=O)Nc3ccc(Br)cc32)C2=C(CCCC2=O)O1 (stereo not drawn) [AK-777/10805059],20.7 RU,31.51%,
CC1(C)CC(=O)C2=C(C1)OC(N)=C(C#N)C21C(=O)N(Cc2ccccc2Cl)c2ccccc21 (stereo not drawn) [AM-807/14957480],16.3 RU,30.76%,
CC(=O)C1=NN(c2ccc(C)cc2)C(c2c[nH]c3ccccc23)N1c1ccc(C)cc1 (stereo not drawn) [AN-465/13570058],7.4 RU,98.24%,
N=C1/C(=C(/O)c2ccccc2)C(c2ccccc2)C2=C(CCCC2=O)N1c1ccc(Br)cc1 (stereo not drawn) [AN-919/14547075],69.6 RU,27.56%,
Cc1ccc(/C(O)=C2\C(=N)N(c3ccccc3)C3=C(C(=O)CCC3)C2c2ccccc2)cc1 (stereo not drawn) [AN-919/14547078],56.6 RU,30.07%,
CCc1cc(C(c2ccccc2F)N2CCOCC2)c(NC(=O)c2ccccc2)s1 (stereo not drawn) [AP-906/42853823],60.7 RU,19.16%,
Cc1ccc(SC(c2ccccc2)C(Cn2cncn2)C(=O)c2ccc(Br)cc2)cc1 (stereo not drawn) [AQ-714/41675002],2.3 RU,32.65%,
COc1ccc(C(OCC2OC(n3cnc4c(N)ncnc43)C(O)C2O)(c2ccccc2)c2ccccc2)cc1 (stereo not drawn) [Compound 7170],,,"EC50 [3]: 18 µM; Kd ([2]; SPR Biacore T200, 25°C): 1.13 µM; EC50 [4]: 13.3 ± 1.32 µM"
"N[C@@H](CSC(c1ccccc1)(c1ccccc1)c1ccccc1)C(=O)O [STLC, S-Trityl-L-cysteine, reference compound]",,,IC50 [5]: 1.25 µM; EC50 [4]: 1.46 ± 0.06 µM
